Here are results for 5 molecules from PMC5956890 (Journal of medicinal chemistry, 2017).

“Also recorded” adds a separate entry of the source.

Assay [1] has as its system hBM-MSCs. The experiment in a line: Oil Red O staining of lipid droplets in hBM-MSCs. Type of assay: cell-based, human. To be noted: compared with IDX control, 7th day.
Another assay has as its target T1, PPARα (Homo sapiens, UniProt Q07869).
T1 sequence (Q07869 200-468 limits assumed): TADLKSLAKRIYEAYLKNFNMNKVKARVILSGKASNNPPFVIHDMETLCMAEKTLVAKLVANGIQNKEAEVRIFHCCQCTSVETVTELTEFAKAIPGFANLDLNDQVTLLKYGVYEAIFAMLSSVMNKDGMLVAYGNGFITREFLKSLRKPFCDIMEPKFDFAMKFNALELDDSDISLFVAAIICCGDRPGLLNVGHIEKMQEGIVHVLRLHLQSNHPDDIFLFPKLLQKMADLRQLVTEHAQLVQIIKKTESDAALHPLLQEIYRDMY
The experiment in a line: TR-FRET competitive binding assay PPARα. To be noted: for effect on PPARα binding: 4 µM, compared to positive control 19; for replacement of labeled PPARα ligand binding: up to 20 µM. (In general: TR-FRET usually uses a lanthanide donor and a delayed reading to cut background.)

In the next assay the target is T2, GR (Homo sapiens, UniProt P04150).
T2 sequence (P04150 1-777): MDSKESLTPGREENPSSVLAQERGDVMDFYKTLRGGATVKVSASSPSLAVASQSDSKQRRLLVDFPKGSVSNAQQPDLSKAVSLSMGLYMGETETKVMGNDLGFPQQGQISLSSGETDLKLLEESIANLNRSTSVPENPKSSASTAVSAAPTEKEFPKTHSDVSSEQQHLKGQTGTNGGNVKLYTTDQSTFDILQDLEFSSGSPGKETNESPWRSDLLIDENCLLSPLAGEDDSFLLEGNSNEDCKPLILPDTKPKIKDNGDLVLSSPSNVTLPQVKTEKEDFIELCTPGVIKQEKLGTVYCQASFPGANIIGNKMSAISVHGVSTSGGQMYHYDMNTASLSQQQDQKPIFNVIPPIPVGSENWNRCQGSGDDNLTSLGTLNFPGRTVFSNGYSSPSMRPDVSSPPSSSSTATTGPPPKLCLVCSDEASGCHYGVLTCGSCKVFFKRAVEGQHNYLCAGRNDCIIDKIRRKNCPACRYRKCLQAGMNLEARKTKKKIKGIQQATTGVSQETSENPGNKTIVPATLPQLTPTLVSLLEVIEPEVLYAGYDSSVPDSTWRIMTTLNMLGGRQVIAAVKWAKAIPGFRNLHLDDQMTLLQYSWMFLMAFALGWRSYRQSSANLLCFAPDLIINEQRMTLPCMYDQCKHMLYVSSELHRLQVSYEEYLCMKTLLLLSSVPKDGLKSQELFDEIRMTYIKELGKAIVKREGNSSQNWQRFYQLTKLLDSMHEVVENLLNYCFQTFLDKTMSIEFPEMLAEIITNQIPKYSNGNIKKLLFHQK
The experiment in a line: TR-FRET competitive binding assay GR. To be noted: 4 µM, compared to dexamethasone.

The target in another assay is T3, LXRα (Homo sapiens, UniProt Q13133).
T3 sequence (Q13133 1-447): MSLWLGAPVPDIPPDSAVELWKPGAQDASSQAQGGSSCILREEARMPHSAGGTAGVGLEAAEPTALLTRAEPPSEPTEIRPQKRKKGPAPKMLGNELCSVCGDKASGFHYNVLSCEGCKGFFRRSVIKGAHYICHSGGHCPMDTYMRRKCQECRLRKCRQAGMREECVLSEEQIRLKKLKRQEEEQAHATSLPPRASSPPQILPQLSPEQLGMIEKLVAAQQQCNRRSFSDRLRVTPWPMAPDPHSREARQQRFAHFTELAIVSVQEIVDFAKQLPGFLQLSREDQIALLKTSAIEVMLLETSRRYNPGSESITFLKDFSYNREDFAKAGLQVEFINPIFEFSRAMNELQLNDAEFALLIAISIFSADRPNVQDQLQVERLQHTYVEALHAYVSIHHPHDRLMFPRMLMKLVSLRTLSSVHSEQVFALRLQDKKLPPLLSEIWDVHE
Briefly: TR-FRET LXRα coactivator assay. To be noted: 4 µM, compared to positive control 20. In kind it is biochemical.

A further assay deals with T4, LXRβ (Homo sapiens, UniProt P55055).
T4 sequence (P55055 1-460): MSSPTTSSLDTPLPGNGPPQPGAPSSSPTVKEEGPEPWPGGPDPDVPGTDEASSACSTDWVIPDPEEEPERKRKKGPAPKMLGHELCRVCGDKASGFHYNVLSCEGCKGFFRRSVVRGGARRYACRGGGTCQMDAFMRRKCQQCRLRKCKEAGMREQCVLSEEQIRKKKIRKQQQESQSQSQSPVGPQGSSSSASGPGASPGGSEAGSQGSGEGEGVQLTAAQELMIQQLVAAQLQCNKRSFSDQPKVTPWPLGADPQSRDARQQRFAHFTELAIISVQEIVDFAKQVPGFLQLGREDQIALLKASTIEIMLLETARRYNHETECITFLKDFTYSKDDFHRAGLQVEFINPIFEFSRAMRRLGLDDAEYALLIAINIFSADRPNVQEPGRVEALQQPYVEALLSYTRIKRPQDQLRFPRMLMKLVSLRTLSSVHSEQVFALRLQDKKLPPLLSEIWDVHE
Briefly: TR-FRET LXRβ coactivator assay. To be noted: 4 µM, compared to positive control 20. Type of assay: biochemical.

The next assay addresses CDK5/p25 (Homo sapiens, UniProt Q00535). The experiment in a line: KinaseProfiler kinase assay CDK5/p25. In kind it is biochemical. Conditions: up to 20 µM, Km ATP.
In the next assay the target is CDK5/p35 (Homo sapiens, UniProt Q00535). The experiment in a line: KinaseProfiler kinase assay CDK5/p35. In kind it is biochemical. Conditions: up to 20 µM, Km ATP.
CDK5/p35, sequence (Q00535 whole entry): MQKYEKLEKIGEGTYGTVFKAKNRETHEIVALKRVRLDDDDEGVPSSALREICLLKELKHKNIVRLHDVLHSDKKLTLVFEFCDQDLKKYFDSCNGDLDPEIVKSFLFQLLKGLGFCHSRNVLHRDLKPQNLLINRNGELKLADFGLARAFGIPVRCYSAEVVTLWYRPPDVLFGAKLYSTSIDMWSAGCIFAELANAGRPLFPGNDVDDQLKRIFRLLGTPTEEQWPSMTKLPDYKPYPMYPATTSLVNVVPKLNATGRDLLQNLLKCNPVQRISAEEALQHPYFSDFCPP
CDK5/p35, sequence (Q15078 2-307 partner limits assumed): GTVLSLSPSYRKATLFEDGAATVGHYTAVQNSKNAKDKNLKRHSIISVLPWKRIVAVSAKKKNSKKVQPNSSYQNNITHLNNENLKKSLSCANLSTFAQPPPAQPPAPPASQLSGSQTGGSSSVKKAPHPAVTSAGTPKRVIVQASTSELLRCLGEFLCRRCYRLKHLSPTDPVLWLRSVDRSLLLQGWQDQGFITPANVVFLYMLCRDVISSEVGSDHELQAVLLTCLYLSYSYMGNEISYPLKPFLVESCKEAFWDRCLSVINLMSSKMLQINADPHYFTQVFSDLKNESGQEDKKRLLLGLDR
Assay [2] deals with T5, PPARδ (Homo sapiens, UniProt Q03181).
T5 sequence (Q03181 211-439 limits assumed): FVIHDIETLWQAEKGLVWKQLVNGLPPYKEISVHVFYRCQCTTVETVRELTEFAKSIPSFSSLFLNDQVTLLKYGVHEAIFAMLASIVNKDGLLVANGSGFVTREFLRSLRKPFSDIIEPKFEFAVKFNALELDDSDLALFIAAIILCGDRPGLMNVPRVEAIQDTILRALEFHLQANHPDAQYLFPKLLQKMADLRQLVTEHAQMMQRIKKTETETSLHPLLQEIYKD
The experiment in a line: TR-FRET PPARδ coactivator assay. Type of assay: biochemical. To be noted: compound alone.

For assay [3], the system named is STZ-induced diabetic C57BL/6J mice. The experiment in a line: STZ-induced diabetes mouse model. Type of assay: in vivo. Conditions: oral 20 mg/kg for 5 days, male C57BL/6J.
Assay [4] concerns hBM-MSCs. The experiment in a line: adiponectin production during adipogenesis in hBM-MSCs. To be noted: compared to IDX control.
Another assay deals with T6, PPARγ (Homo sapiens, UniProt P37231).
T6 sequence (P37231 235-505 limits assumed): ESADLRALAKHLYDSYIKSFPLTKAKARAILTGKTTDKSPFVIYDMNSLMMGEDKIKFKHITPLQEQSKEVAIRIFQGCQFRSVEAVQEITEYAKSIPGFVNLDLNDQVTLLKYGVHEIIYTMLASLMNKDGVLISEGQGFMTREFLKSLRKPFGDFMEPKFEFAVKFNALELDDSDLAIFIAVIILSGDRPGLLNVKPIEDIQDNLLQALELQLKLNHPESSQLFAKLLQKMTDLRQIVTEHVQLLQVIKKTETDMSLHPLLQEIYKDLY
The experiment in a line: TR-FRET competitive binding assay PPARγ. To be noted: concentration-response.

The target in another assay is hA2AAR. Conditions: cited from earlier work.
In assay [5] the target is T7, PPARδ (Homo sapiens, UniProt Q03181).
T7 sequence (Q03181 1-441): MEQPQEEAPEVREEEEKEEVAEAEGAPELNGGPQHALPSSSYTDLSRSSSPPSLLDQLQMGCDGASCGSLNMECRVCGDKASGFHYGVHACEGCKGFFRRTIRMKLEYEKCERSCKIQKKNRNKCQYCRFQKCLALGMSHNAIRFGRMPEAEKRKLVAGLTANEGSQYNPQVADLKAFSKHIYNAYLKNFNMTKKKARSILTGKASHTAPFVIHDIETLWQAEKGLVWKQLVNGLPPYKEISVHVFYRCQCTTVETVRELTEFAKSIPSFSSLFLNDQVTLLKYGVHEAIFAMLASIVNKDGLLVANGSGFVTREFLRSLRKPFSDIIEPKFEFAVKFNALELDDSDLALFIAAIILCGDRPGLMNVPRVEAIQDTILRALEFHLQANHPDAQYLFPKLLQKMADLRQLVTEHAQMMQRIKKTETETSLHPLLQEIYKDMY
The experiment in a line: TR-FRET competitive binding assay PPARδ. Conditions: concentration-response.

The subject of another assay is hA1AR. To be noted: cited from earlier work.

CDK5/p25, sequence (Q00535 whole entry): as the sequence (Q00535 whole entry) above
CDK5/p25, sequence (Q15078 99-307 partner limits assumed): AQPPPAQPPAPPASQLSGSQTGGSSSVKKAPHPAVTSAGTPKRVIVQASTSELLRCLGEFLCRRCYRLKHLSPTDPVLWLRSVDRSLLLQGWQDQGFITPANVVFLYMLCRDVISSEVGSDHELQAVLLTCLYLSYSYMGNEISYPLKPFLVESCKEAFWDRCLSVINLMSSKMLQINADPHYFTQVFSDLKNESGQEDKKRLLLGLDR

Take `CNC(=O)[C@H]1O[C@@H](n2cnc3c(NCc4cccc(I)c4)ncnc32)[C@H](O)[C@@H]1O` [Compound 1a, N^6-(3-iodobenzyl)adenosine-5′-N-methyluronamide]: the “lipid droplets in differentiated adipocytes (ORO staining)” value in the assay with hBM-MSCs [1] is “increased the number and size of lipid droplets”. Besides, on PPARα, the “effect on PPARα binding” value is listed as “no significant effects” and the “replacement of labeled PPARα ligand binding” value is listed as no more than 50%. Also, on GR, the “effect on GR binding” value is listed as “no significant effects”. In addition, the “effect on LXRα coactivation” value at LXRα is “no significant effects”. In addition, the “effect on LXRβ coactivation” value on LXRβ was “no significant effects”. The “effect on CDK5/p25 kinase activity” value at CDK5/p25 was “Neither 1a nor 1b affected CDK activity”. In addition, on CDK5/p35, the “effect on CDK5/p35 kinase activity” value is listed as “Neither 1a nor 1b affected CDK activity”. The “recruitment of labeled coactivator peptide to PPARδ” value on PPARδ [2] is listed as “no effect on the recruitment of the labeled coactivator peptide”. For the same molecule, in assay [3], the “serum triglyceride levels” value is given as “downregulated serum triglyceride levels”. Also, the “serum glucose levels” value in assay [3] (20 mg/kg) is “tended to decrease serum glucose levels”. Also, in the assay on hBM-MSCs [4], the “adiponectin production during adipogenesis” value was “significantly promoted adiponectin production; also recorded: upregulated adiponectin production during adipogenesis in hBM-MSCs in a concentration-dependent manner”.
For the molecule `CNC(=O)[C@H]1O[C@@H](n2cnc3c(NCc4cccc(I)c4)nc(Cl)nc32)[C@H](O)[C@@H]1O` [Compound 1b], at PPARα, the “effect on PPARα binding” value is “no significant effects” and the “replacement of labeled PPARα ligand binding” value is recorded as no more than 50%. Moreover, the “PPARγ binding activity” value on PPARγ was “significant competitive binding activity”. Further, the “effect on GR binding” value on GR is “no significant effects”. For the same molecule, the “effect on LXRα coactivation” value on LXRα is on record as “no significant effects”. Moreover, on LXRβ, the “effect on LXRβ coactivation” value was “no significant effects”. The “effect on CDK5/p25 kinase activity” value at CDK5/p25 is “Neither 1a nor 1b affected CDK activity”. The “effect on CDK5/p35 kinase activity” value at CDK5/p35 is recorded as “Neither 1a nor 1b affected CDK activity”.
By Ki is commonly meant a measure of affinity in units of concentration, obtained from inhibition or displacement. As for `O=C(NC1CC1)[C@H]1S[C@@H](n2cnc3c(NCc4cccc(I)c4)ncnc32)[C@H](O)[C@@H]1O` [Compound 2b, (2S,3S,4R,5R)-N-Cyclopropyl-3,4-dihydroxy-5-(6-((3-iodobenzyl)amino)-9H-purin-9-yl)tetrahydrothiophene-2-carboxamide], the Ki on hA2AAR (read-out: Ki (hA2AAR)) is 0.0152 ± 0.0026 µM.
As to `O[C@@H]1[C@H](O)CS[C@H]1n1cnc2c(NCc3cccc(Cl)c3)nc(Cl)nc21` [Compound 3b, (2R,3R,4S)-2-(2-Chloro-6-((3-chlorobenzyl)amino)-9H-purin-9-yl)tetrahydrothiophene-3,4-diol], the “PPARδ binding activity” value on PPARδ [5] is listed as “maximal PPARδ binding activity”. Besides, the “% displacement at 1 µM (hA1AR)” value in the assay on hA1AR is on record as 38%. In addition, the “% displacement at 1 µM (hA2AAR)” value in the assay on hA2AAR (1 µM) is 18%.
`O[C@@H]1[C@H](O)CS[C@H]1n1cnc2c(NCc3ccccc3Cl)nc(Cl)nc21` [Compound 3c, (2R,3R,4S)-2-(2-Chloro-6-((2-chlorobenzyl)amino)-9H-purin-9-yl)tetrahydrothiophene-3,4-diol]: the “% displacement at 1 µM (hA1AR)” value in the assay with hA1AR is 13%.
